# Experimental data from patent US20090012152A1, “Use of Tetramic Acid Derivatives for Controlling Insects from the Genus of the Plane Lice (Sternorrhyncha)” (Bayer CropScience Aktiengesellschaft, priority 2005, published 2009).
# Assays:
# Assay type in all cases: in vivo
# Pemphigus bursarius = experiment: Example 2: chrysanthemums, lettuce root aphid, foliar spray; conditions: on roots, spray on above-ground parts, rate : I-9 144, I-2 96
# Experimental: In three replications, in each case 10 109-day-old chrysanthemums of the cultivar “Camilla” in 2 l-vessels are treated against the lettuce root aphid Pemphigus bursarius. Here, the active compounds Example (I-9) (240 SC) and Example (I-2) (240 SC) are applied with a knapsack sprayer operated by pressurized air at the stated application rates only to the above-ground parts of the plants. The soil is covered with a film. The application rate is 300 l of water/ha. 0.1% a.i. of rapeseed oil methyl ester (500 EW) is added to the spray liquor.
# The kill in percent is determined on the roots. 21 and 29 days after the application, the following results are obtained: […]
# Aleurothrixus floccosus = experiment: Example 39: orange trees treated against Aleurothrixus floccosus; conditions: on branches, % a.i.: Juvinal 0.005, I-4 0.0072
# Experimental: In three replications, about 55-year-old orange trees of the cultivar “Amargo” are treated against Aleurothrixus floccosus. The application is carried out using a motor-operated knapsack sprayer. Here, the active compound Example (I-4) (240 SC), in a tank mix with 0.1% a.i. of rapeseed oil methyl ester (500 EW), is tested at the stated application rate against the standard Juvinal (100 EC) at the stated application rates, applied once. The application rate is 2630 l of water/ha.
# Evaluation is carried out 36, 51, 62 and 76 days after the treatment by rating the kill on the branches.
# Aspidiotus neri = experiment: Example 20: lime trees treated against Aspidiotus neri; conditions: 167 d after treatment, on fruits, % a.i.: Dursban 0.096, Juvinal 0.005, I-4 0.0072
# Experimental: In four replications, about 5-year-old lime trees of the cultivar “Fino” are treated against Aspidiotus neri. The application is carried out using a knapsack sprayer. Here, the active compound Example (I-4) (240 SC) in a tank mix with 0.1% a.i. of rapeseed oil methyl ester (500 EW) at the stated application rate is tested against the standards Dursban (480 EC) and Juvinal (100 EC) at the stated amounts, applied once. The application rate is 3000 l of water/ha per tree.
# Evaluation is carried out 167 days after the treatment by rating the kill on the fruits.
# [1] = system: Pseudaulacaspis prunicola; experiment: Example 23: Japanese apricot trees treated against Pseudaulacaspis prunicola; conditions: 58 days after treatment, nymphs on shoots, % a.i.: Supracide EC 0.04, I-4 0.0075
# Experimental: In six replications, about 16-year-old Japanese apricot trees of the cultivar “Shirokag” are treated against Pseudaulacaspis prunicola. The application is carried out using a sprayer. Here, the active compound Example (I-4) (200 SC) is tested against the commercial standard Supracide EC (400 EC), at the stated application rates. The application rate is 1500 l of water/ha.
# Evaluation is carried out 58 days after the treatment by rating the kill of the nymphs on the shoots.
# Myzus persicae = experiment: Example 49: potatoes treated against Myzus persicae; conditions: live nymphs on leaves, Henderson and Tilten, g a.i./ha: Tamaron 585, I-4 48
# Experimental: In four replications, plots of a size of about 7.5 m^2 with potatoes of the cultivar “BP 1” are treated against Myzus persicae. The application is carried out using a knapsack sprayer operated with pressurized air. Here, the active compound Example (I-4) (240 SC), in a tank mix with 0.2% a.i. of rapeseed oil methyl ester (500 EW), and the commercial standard Tamaron (585 SL) are tested at the stated application rates. Two applications are carried out, at an interval of 7 days. The application rate is 500 l of water/ha.
# Evaluation is carried out 7 and 13 days after the first treatment by counting the live animals (nymphs) on the leaves. The efficacy is then calculated by calculating the effect on the population in percent according to Henderson and Tilten.
# Ceroplastes rubens = experiment: Example 12: satsuma trees treated against Ceroplastes rubens; conditions: 41 days after treatment; live animals counted, Henderson and Tilton; satsuma tree; % a.i.: buprofezin 0.025, I-4 0.0072
# Experimental: In three replications, in each case one about 4-year-old satsuma tree of the cultivar “Nankan 20” is treated against Ceroplastes rubens. Here, the active compound Example (I-4) (240 SC) in a tank mix with 0.1% of rapeseed oil methyl ester (500 EW) at the stated application rate is tested against the commercial standard buprofezin (25 WP) at the stated application rate. The application is carried out using a motor-operated knapsack sprayer. Here, treatment is carried out using an application rate of 400 l of water/ha.
# Evaluation is carried out before and 41 days after the treatment by counting the live animals. The efficacy in percent is then calculated according to Henderson and Tilton.
# Dysmicoccus brevipes = experiment: Example 30: pineapple plants treated against Dysmicoccus brevipes; conditions: nymphs on pineapple plants, g a.i./ha: Confidor OD 140, I-4 75
# Experimental: In five replications, pineapple plants of the cultivar “MD2” of a height of about 35 cm are treated against Dysmicoccus brevipes. The application is carried out using a motor-operated knapsack sprayer. Here, the active compound Example (I-4) (150 OD) is tested against the commercial standard Confidor OD (240 OD), at the stated application rates. The application rate is 4000 l of water/ha. Both active compounds are sprayed as a tank mix with 500 g of a.i./ha of adjuvant NP-7 and 4 l of a.i./ha of mineral oil.
# Evaluation is carried out 9, 23 and 37 days after the treatment by rating the kill of the nymphs on the plants.
# [2] = system: Selenaspidius articulatus; experiment: Example 19: orange trees treated against Selenaspidius articulatus; conditions: 100 d after treatment, on leaves, % a.i.: methidathion 0.05, I-9 0.0288, I-4 0.0144
# Experimental: In three replications, 3-year-old orange trees of the cultivar “Pera natal” are treated against Selenaspidius articulatus. The application is carried out using a motor-operated knapsack sprayer. Here, the active compounds Example (I-9) (240 SC) and Example (I-4) (240 SC) at the stated application rate are tested against the standard methidathion (400 EC) in the stated amounts, applied once. The application rate is 3.3 l of water per tree.
# Evaluation is carried out 100 days after the treatment by rating the kill on the leaves.
Compound,Kill (%) 21 d (Pemphigus bursarius; 21 d after application),Kill (%) 29 d (Pemphigus bursarius; 29 d after application),Kill (%) 36 d (Aleurothrixus floccosus; 36 d after treatment),Kill (%) 51 d (Aleurothrixus floccosus; 51 d after treatment),Kill (%) 62 d (Aleurothrixus floccosus; 62 d after treatment),Kill (%) 76 d (Aleurothrixus floccosus; 76 d after treatment),Kill (%) 167 d (Aspidiotus neri),Kill (%) 58 days [1],Effect (%) 7 d (Myzus persicae; 7 d after first of two treatments),Effect (%) 13 d (Myzus persicae; 13 d after first of two treatments),Effect (%) (Ceroplastes rubens),Kill (%) 9 days (Dysmicoccus brevipes; 9 days after treatment),Kill (%) 23 days (Dysmicoccus brevipes; 23 days after treatment),Kill (%) 37 days (Dysmicoccus brevipes; 37 days after treatment),Kill (%) 100 d [2]
CCOC(=O)OC1=C(c2cc(C)ccc2Br)C(=O)NC12CCC(OC)CC2 (stereo not drawn) [Example (I-2)],80.8%,91.8%,–,–,–,–,–,–,–,–,–,–,–,–,–
CCOC(=O)OC1=C(c2cc(C)ccc2C)C(=O)NC12CCC(OC)CC2 (stereo not drawn) [Example (I-4)],–,–,81.1%,81.5%,92.1%,92.9%,96.2%,92.3%,67%,100%,98%,80.9%,84.0%,91.3%,70%
